The assay concerns ech42 (42-kDa endochitinase-encoding) gene expression. Description: ech42 endochitinase promoter:gfp induction in T. atroviride strain P1. The format is cell-based. The conditions noted are these: endochitinase promoter:gfp fluorescence in Trichoderma strain P1. The source says:
To monitor chitinase expression during mycoparasitism of Trichoderma atroviride (formerly T. harzianum) strain P1 in situ, the strain was transformed with plasmids containing fusions of green fluorescent protein (“gfp”) to the 5-regulatory sequences of the T. atroviride nag1 gene (N-acetyl-beta-D-glucosaminidase-encoding) or ech42 (42-kDa endochitinase-encoding) genes. Confronting these strains with the target Rhizoctonia solani led to induction of gene expression before (ech42) or after (nag 1) physical contact. […] The chitinase inhibitor allosamidin blocked ech42 expression and reduced inhibition of R. solani growth during confrontation. […] T. atroviride, T. harzianum, and any other species of Trichoderma produce small quantities of particular enzymes constitutively. […]
The ability of Trichoderma to release elicitor compounds from the various target fungi was measured by induction of gfp in the endochitinase promoter labeled P1 strain of Trichoderma. […]
In subsequent experiments, the release of elicitors from cell walls of some of the same fungi and Oomycetes tested above using enzymes (endochitinase, glucanase, exochitinase, mixed cellulase) purified from T. atroviride was assessed. Again, the elicitation abilities of the materials were assessed with Trichoderma strain P1 transformed to contain the endochitinase promoter:gfp construct. […]

We go through 1 substance from patent US20060021470A1, “Compositions for enhancing biological functions in organisms” (priority 2004, published 2006).

Take Chitobiose: the elicitor activity result is given as “least effective”.
